These results are taken from ChEMBL document CHEMBL5370623, “Discovery of Quinazoline-2,4(1H,3H)-dione Derivatives Containing a Piperizinone Moiety as Potent PARP-1/2 Inhibitors─Design, Synthesis, In Vivo Antitumor Activity, and X-ray Crystal Structure Analysis” (J Med Chem, 2023).

Test [1] deals with MX1. The test can be described thus: Cytotoxicity against human MX1 cells […] assessed as inhibition of cell growth measured after 72 hrs by MTT assay. It counts as functional, cell-based. The settings on record: MX1, 72 h.
For test [2], the system named is MX1. Put plainly: Potentiation factor, ratio of IC50 for cytotoxicity against human MX1 cells to IC50 for cytotoxicity against human MX1 cells in presence of temozolomide. It counts as functional.
For test [3], the target named is T1, Poly [ADP-ribose] polymerase 1 (Homo sapiens, UniProt P09874). The test can be described thus: Inhibition of human recombinant PARP1 expressed in Escherichia coli BL21(DE3) incubated for 1 hr by ELISA assay. In general terms: An ELISA detects its analyte on a solid surface through an enzyme-linked reagent.
Test [4] has as its target Poly [ADP-ribose] polymerase 2 (Homo sapiens, UniProt Q9UGN5). The test can be described thus: Inhibition of human recombinant PARP2 expressed in Escherichia coli BL21(DE3) incubated for 1 hr by ELISA assay.
Test [5] concerns the target T1, Poly [ADP-ribose] polymerase 1. Put plainly: Inhibition of human PARP1 in human MX1 cells assessed as enzyme-DNA trapping activity at 1 uM incubated for 24 hrs by Western blot analysis. It counts as cell-based. (In general: A western blot detects proteins with antibodies after separation by electrophoresis.)

Structures are written as SMILES. pIC50: −log10 of the molar value. The source made the active and inactive calls. No cut-off for these calls is given here.

T1 sequence (P09874 whole entry): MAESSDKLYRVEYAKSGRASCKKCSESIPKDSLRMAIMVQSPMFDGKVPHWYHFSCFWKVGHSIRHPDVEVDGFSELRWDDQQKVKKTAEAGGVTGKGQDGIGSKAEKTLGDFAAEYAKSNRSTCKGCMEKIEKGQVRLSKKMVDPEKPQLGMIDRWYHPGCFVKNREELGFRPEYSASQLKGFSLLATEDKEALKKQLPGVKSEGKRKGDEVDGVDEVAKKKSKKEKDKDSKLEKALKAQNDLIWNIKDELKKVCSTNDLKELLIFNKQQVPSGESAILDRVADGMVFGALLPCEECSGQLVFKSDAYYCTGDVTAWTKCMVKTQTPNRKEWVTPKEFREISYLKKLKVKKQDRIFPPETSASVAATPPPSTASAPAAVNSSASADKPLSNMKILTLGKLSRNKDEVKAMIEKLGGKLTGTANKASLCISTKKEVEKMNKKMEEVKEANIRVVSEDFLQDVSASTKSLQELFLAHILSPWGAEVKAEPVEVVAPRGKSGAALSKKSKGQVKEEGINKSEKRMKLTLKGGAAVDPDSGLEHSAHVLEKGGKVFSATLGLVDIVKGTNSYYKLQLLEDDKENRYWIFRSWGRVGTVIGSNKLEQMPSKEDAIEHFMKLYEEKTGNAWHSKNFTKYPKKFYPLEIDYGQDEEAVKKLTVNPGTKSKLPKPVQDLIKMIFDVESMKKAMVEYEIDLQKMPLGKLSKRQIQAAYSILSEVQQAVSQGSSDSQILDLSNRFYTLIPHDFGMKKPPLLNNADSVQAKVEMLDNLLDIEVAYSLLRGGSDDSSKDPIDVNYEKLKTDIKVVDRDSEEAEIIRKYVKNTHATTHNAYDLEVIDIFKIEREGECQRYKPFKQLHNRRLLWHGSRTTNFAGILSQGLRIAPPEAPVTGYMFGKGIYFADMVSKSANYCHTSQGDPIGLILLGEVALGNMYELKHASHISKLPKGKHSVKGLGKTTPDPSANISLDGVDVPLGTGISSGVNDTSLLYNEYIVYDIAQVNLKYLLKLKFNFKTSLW
Chain of Poly [ADP-ribose] polymerase 2 (Q9UGN5 whole entry): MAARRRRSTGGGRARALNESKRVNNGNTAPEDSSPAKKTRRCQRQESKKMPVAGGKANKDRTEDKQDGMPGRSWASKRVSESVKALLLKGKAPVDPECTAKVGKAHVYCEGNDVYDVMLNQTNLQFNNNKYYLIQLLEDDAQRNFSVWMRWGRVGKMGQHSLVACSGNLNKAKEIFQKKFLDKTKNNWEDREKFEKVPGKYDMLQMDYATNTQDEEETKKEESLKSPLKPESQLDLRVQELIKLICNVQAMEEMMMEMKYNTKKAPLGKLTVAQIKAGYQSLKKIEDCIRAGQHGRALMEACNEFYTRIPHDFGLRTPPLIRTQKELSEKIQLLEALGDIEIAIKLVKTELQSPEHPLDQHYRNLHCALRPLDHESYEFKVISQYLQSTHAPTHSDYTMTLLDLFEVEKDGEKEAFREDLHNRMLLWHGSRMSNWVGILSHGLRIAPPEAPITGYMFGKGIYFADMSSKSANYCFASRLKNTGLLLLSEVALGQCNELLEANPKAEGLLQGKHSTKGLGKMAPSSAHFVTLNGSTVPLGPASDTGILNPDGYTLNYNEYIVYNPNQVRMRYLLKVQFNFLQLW

For orientation: pIC50 means −log10 of the IC50, conventionally taken in molar units. As for `O=C1CN(C(=O)c2cc(Cn3c(=O)[nH]c(=O)c4ccccc43)ccc2F)CCN1CCCO`, the figures for the pIC50 (in the test on MX1 [1]; in test [3]; in test [4]) were 7.22, 7.77 and 8.20, respectively. Further, the PF50 with MX1 [2] was 4.38.
As for `O=C1CN(C(=O)c2cc(Cn3c(=O)[nH]c(=O)c4ccccc43)ccc2F)CCN1CC1CCCC1`, the pIC50 is 7.63 with MX1 [1], 8.61 in test [3] and 10.00 in test [4]. Moreover, in the test with MX1 [2], the PF50 is >10. In addition, the PARP1-DNA trapping activity entry in test [5] is “Active”.
As to `CC(C)=CCN1CCN(C(=O)c2cc(Cn3c(=O)[nH]c(=O)c4ccccc43)ccc2F)CC1=O`, the negative-log IC50 (pIC50) in the test with MX1 [1] was 8.18; in test [3] it was 8.01; in test [4] it was 8.63. Also, the PF50 in the test with MX1 [2] is reported as >10. For the same compound, in test [5], the PARP1-DNA trapping activity entry is “Active”.
For the compound `CCC(C)CN1CCN(C(=O)c2cc(Cn3c(=O)[nH]c(=O)c4ccccc43)ccc2F)CC1=O` (stereo not given), the figures for the pIC50 (in the test on MX1 [1]; in test [3]; in test [4]) were 7.98, 8.52 and 8.88, respectively. Besides, the PF50 with MX1 [2] is recorded as >10.
The corresponding values for `O=C(c1cc(Cn2c(=O)[nH]c(=O)c3ccccc32)ccc1F)N1CCN(C2CCCCC2)C(=O)C1` are 8.24, 8.55, 9.48 and >10.
In the case of `C=CCN1CCN(C(=O)c2cc(Cn3c(=O)[nH]c(=O)c4ccccc43)ccc2F)CC1=O`, the pIC50 is < 7.00 with MX1 [1], 8.38 in test [3] and 9.15 in test [4].
As for `O=C1CN(C(=O)c2cc(Cn3c(=O)[nH]c(=O)c4ccccc43)ccc2F)CCN1CC(F)(F)F`, the pIC50 was 7.73 in the test with MX1 [1], 8.42 in test [3] and 8.73 in test [4]. In the test with MX1 [2], the PF50 was >10.
For `CC(C)N1CCN(C(=O)c2cc(Cn3c(=O)[nH]c(=O)c4ccccc43)ccc2F)CC1=O` the same measures were 7.51, 8.30, 8.76 and >10.
The corresponding values for `C#CCN1CCN(C(=O)c2cc(Cn3c(=O)[nH]c(=O)c4ccccc43)ccc2F)CC1=O` are 7.55, 7.81, 8.53 and >10.
For `O=C1CN(C(=O)c2cc(Cn3c(=O)[nH]c(=O)c4ccccc43)ccc2F)CCN1` the same measures were < 7.00, 8.36, 8.73 and 3.23.
In the case of `COC(=O)CN1CCN(C(=O)c2cc(Cn3c(=O)[nH]c(=O)c4ccccc43)ccc2F)CC1=O`, the pIC50 with MX1 [1] is 7.35; in test [3], 8.05; in test [4], 8.57. Further, the PF50 in the test on MX1 [2] is 4.64.
Regarding `CC(C)(C)CN1CCN(C(=O)c2cc(Cn3c(=O)[nH]c(=O)c4ccccc43)ccc2F)CC1=O`, the pIC50 in the test on MX1 [1] is 7.63; in test [3] it was 8.46; in test [4], 9.48. The PF50 in the test on MX1 [2] is >10.
For `CN1CCN(C(=O)c2cc(Cn3c(=O)[nH]c(=O)c4ccccc43)ccc2F)CC1=O` the same measures were 7.29, 8.42, 8.25 and 1.18.
Regarding `O=C1CN(C(=O)c2cc(Cn3c(=O)[nH]c(=O)c4ccccc43)ccc2F)CCN1CCC1CC1`, the pIC50 was 8.38 in the test with MX1 [1], 8.68 in test [3] and 8.67 in test [4]. Further, the PF50 in the test on MX1 [2] was >10. The PARP1-DNA trapping activity result in test [5] is “Active”.
Regarding `CCCN1CCN(C(=O)c2cc(Cn3c(=O)[nH]c(=O)c4ccccc43)ccc2F)CC1=O`, the pIC50 in the test on MX1 [1] is 7.78; in test [3], 7.93; in test [4], 8.46. Also, in the test on MX1 [2], the PF50 is on record as >10.
On to `CC(C)C(C)N1CCN(C(=O)c2cc(Cn3c(=O)[nH]c(=O)c4ccccc43)ccc2F)CC1=O` (stereo not given), for which the pIC50 in the test on MX1 [1] was 8.78; in test [3] it was 8.05; in test [4] it was 8.73. For the same compound, the PF50 in the test with MX1 [2] is reported as >10. The PARP1-DNA trapping activity entry in test [5] was “Active”.
For `CCCCN1CCN(C(=O)c2cc(Cn3c(=O)[nH]c(=O)c4ccccc43)ccc2F)CC1=O`, the pIC50 is 7.70 with MX1 [1], 8.57 in test [3] and 9.31 in test [4]. The PF50 in the test with MX1 [2] was >10.
For `O=C(c1cc(Cn2c(=O)[nH]c(=O)c3ccccc32)ccc1F)N1CC(=O)N2CCCC2C1` (stereo not given) the same measures were 7.34, 7.76, 8.04 and >10.
For `CC(C)CN1CCN(C(=O)c2cc(Cn3c(=O)[nH]c(=O)c4ccccc43)ccc2F)CC1=O` the same measures were 7.65, 8.33, 9.42 and >10.
The corresponding values for `CCN1CCN(C(=O)c2cc(Cn3c(=O)[nH]c(=O)c4ccccc43)ccc2F)CC1=O` are 7.63, 8.12, 8.91 and >10.
Consider `O=C1CN(C(=O)c2cc(Cn3c(=O)[nH]c(=O)c4ccccc43)ccc2F)CCN1Cc1ccccc1`, for which the values for the pIC50 (with MX1 [1]; in test [3]; in test [4]) were 8.51, 8.60 and 9.11, respectively. Besides, in the test with MX1 [2], the PF50 is given as >10. The PARP1-DNA trapping activity entry in test [5] is “Active”.
Consider `CN(C)CCN1CCN(C(=O)c2cc(Cn3c(=O)[nH]c(=O)c4ccccc43)ccc2F)CC1=O`, for which the results for the negative logarithm of the IC50 (pIC50) (in the test on MX1 [1]; in test [3]; in test [4]) were < 7.00, 8.62 and 8.17, respectively.
In the case of `CC(C)CCN1CCN(C(=O)c2cc(Cn3c(=O)[nH]c(=O)c4ccccc43)ccc2F)CC1=O`, the results for the pIC50 (with MX1 [1]; in test [3]; in test [4]) were 7.91, 8.52 and 9.04, respectively. For the same compound, the PF50 in the test on MX1 [2] is >10.
Turning to `O=C1CN(C(=O)c2cc(Cn3c(=O)[nH]c(=O)c4ccccc43)ccc2F)CCN1CC1CC1`, the pIC50 was 7.83 in the test with MX1 [1], 8.01 in test [3] and 8.58 in test [4]. Further, the PF50 in the test with MX1 [2] was >10.
For the compound `CC(C1CCCC1)N1CCN(C(=O)c2cc(Cn3c(=O)[nH]c(=O)c4ccccc43)ccc2F)CC1=O` (stereo not given), the pIC50 in the test with MX1 [1] was 8.93; in test [3], 8.44; in test [4] it was 9.66. For the same compound, the PF50 in the test on MX1 [2] is >10. Moreover, in test [5], the PARP1-DNA trapping activity result was “Active”.
`O=C(c1cc(Cn2c(=O)[nH]c(=O)c3ccccc32)ccc1F)N1CC(=O)N2CCCCC2C1` (stereo not given): the pIC50 is 7.49 with MX1 [1], 8.01 in test [3] and 8.47 in test [4]. Also, the PF50 in the test with MX1 [2] is >10.
The corresponding values for `CCC(C)N1CCN(C(=O)c2cc(Cn3c(=O)[nH]c(=O)c4ccccc43)ccc2F)CC1=O` (stereo not given) are 7.47, 8.42, 9.36 and >10.
The corresponding values for `CC(C1CCCCC1)N1CCN(C(=O)c2cc(Cn3c(=O)[nH]c(=O)c4ccccc43)ccc2F)CC1=O` (stereo not given) are 8.44, 8.31, 9.59 and >10.
Turning to `COCCN1CCN(C(=O)c2cc(Cn3c(=O)[nH]c(=O)c4ccccc43)ccc2F)CC1=O`, the pIC50 in the test with MX1 [1] was 7.21; in test [3], 8.31; in test [4], 9.08. Besides, in test [5], the PARP1-DNA trapping activity entry is “Active”.
